By pIC50 is commonly meant the negative decadic logarithm of the IC50, by convention in mol/L.

pIC50: −log10 of the molar value. Where only a bound is given, the exact number is not on record here.

Test [1] deals with wildtype Wnt signaling cascade. Briefly: HEK293 TOP assay (Super TopFlash luciferase reporter, Wnt-3a stimulated). It is filed as cell-based. The conditions noted are these: Homo sapiens, HEK293, 16 h, HEK293 TOP reporter cells, Wnt3a at EC50, 16 hours. The method in brief: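 Compound series (50 μM down to 15 nM, 3.16-fold) diluted from DMSO 50-fold into CAFTY buffer, pH 7.4, 2 mM Ca^2+, 0.01% BSA, applied to Wnt-3a-stimulated HEK293 TopFlash and FOP reporter lines in parallel. Cells seeded 10000/well 24 h before; luciferase signal measured.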
For orientation: In a reporter assay the amount or activity of a reporter protein is the signal.

Test [2] relates to HEK293 cells cotransfected with the FOP control vector. Put plainly: HEK293 FOP assay (control reporter with non-functional TCF elements). It is filed as cell-based. The conditions noted are these: Homo sapiens, 16 hours. The method in brief: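 Compound series from 50 μM down to 15 nM, prediluted in DMSO then 50-fold into CAFTY buffer (pH 7.4, 2 mM Ca2+, 0.01% BSA), tested alongside TOP cells on a Geneticin-selected HEK293 FOP line whose TCF elements are replaced by a random sequence; recombinant human Wnt-3a applied at 2500-5 ng/ml.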

A further test deals with T1, TNKS2 (Homo sapiens, UniProt Q9H2K2).
T1 construct: purchased BPS Bioscience, San Diego, USA 80572 (TNKS2 Histone Ribosylation Assay Kit)
T1 sequence (Q9H2K2 1-1166): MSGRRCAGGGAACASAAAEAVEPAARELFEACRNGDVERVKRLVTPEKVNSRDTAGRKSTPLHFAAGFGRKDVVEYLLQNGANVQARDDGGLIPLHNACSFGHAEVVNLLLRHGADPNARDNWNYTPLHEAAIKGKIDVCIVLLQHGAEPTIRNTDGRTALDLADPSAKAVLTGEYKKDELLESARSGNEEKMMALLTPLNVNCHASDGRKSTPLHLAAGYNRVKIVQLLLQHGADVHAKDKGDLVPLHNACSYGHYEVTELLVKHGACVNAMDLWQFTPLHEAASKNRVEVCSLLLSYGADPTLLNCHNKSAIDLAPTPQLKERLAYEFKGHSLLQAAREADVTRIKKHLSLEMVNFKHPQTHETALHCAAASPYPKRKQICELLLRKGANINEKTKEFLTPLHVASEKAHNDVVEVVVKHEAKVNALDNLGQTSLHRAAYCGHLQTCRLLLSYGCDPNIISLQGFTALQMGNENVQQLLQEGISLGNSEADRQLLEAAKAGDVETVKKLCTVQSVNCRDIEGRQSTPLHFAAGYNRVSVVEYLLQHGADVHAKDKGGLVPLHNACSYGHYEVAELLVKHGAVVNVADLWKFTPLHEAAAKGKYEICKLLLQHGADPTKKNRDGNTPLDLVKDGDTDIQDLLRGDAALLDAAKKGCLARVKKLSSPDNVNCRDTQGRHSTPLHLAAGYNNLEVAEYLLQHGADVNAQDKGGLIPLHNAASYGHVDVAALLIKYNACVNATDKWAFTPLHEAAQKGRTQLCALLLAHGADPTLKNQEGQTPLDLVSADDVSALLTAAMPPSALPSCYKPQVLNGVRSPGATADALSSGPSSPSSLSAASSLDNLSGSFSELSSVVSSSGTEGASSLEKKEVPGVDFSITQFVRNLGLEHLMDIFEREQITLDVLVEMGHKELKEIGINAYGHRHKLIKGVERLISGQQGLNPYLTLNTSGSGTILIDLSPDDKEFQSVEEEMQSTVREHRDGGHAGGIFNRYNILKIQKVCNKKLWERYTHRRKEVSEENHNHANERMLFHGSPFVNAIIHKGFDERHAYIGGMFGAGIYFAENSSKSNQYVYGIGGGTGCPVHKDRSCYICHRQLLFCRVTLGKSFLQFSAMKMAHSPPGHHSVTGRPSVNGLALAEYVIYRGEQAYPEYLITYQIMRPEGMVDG
Put plainly: TNKS2 Assay B (auto-parsylation, [3H]-NAD+ SPA). The class given is biochemical. The conditions noted are these: 6 nM TNKS2, auto-parsylation, over night at room temperature.

As for `O=C(N[C@H]1CC[C@@]2(CCN(c3ccc(F)cc3Cl)C2=O)CC1)c1cnc2cccnn12` [Example 138, N-[(trans)-2-(2-chloro-4-fluorophenyl)-1-oxo-2-azaspiro[4.5]dec-8-yl]imidazo[1,2-b]pyridazine-3-carboxamide], the pIC50 in test [1] is 8.21; in test [2], not above 4.30; against TNKS2, 8.15.
In the case of `Cc1cc(C)n2ncc(C(=O)N[C@H]3CC[C@@]4(CCN(c5ccc(F)cc5Cl)C4=O)CC3)c2n1` [Example 139, N-[(trans)-2-(2-chloro-4-fluorophenyl)-1-oxo-2-azaspiro[4.5]dec-8-yl]-5,7-dimethylpyrazolo[1,5-a]pyrimidine-3-carboxamide], the values for the pIC50 (in test [1]; in test [2]; against TNKS2) were 8.96, not above 4.30 and 8.38, respectively.
Take `CNC(=O)c1[nH]cnc1C(=O)N[C@H]1CC[C@@]2(CCN(c3ccc(F)cc3Cl)C2=O)CC1` [Example 140, N^4-[(trans)-2-(2-chloro-4-fluorophenyl)-1-oxo-2-azaspiro[4.5]dec-8-yl]-N^5-methyl-1H-imidazole-4,5-dicarboxamide]: the negative-log IC50 (pIC50) in test [1] is 9.07; in test [2], not above 4.30; at TNKS2, 8.16.
Consider `CCNC(=O)c1[nH]cnc1C(=O)N[C@H]1CC[C@@]2(CCN(c3ccc(F)cc3Cl)C2=O)CC1` [Example 141, N^4-[(trans)-2-(2-chloro-4-fluorophenyl)-1-oxo-2-azaspiro[4.5]dec-8-yl]-N^5-ethyl-1H-imidazole-4,5-dicarboxamide], for which the pIC50 is 8.74 in test [1], not above 4.30 in test [2] and 8.19 at TNKS2.
As for `CNC(=O)c1nc[nH]c1C(=O)N[C@H]1CC[C@H](C(=O)Nc2cc(C(F)(F)F)ccc2Cl)CC1` [Example 142, N^5-(trans-4-{[2-chloro-5-(trifluoromethyl)phenyl]carbamoyl}cyclohexyl)-N^4-methyl-1H-imidazole-4,5-dicarboxamide], the negative logarithm of the IC50 (pIC50) in test [1] was 7.17; in test [2], 4.39; on TNKS2 it was 7.10.
Turning to `COCC(C)NC(=O)c1nc[nH]c1C(=O)N[C@H]1CC[C@H](C(=O)Nc2cc(C(F)(F)F)ccc2Cl)CC1` (stereo partly drawn) [Example 143, N^5-(trans-4-{[2-chloro-5-(trifluoromethyl)phenyl]carbamoyl}cyclohexyl)-N^4-(1-methoxypropan-2-yl)-1H-imidazole-4,5-dicarboxamide], the pIC50 was 6.66 in test [1], 4.48 in test [2] and 6.82 at TNKS2.
Regarding `COC(C)(C)CNC(=O)c1nc[nH]c1C(=O)N[C@H]1CC[C@H](C(=O)Nc2cc(C(F)(F)F)ccc2Cl)CC1` [Example 144, N^5-(trans-4-{[2-chloro-5-(trifluoromethyl)phenyl]carbamoyl}cyclohexyl)-N^4-(2-methoxy-2-methylpropyl)-1H-imidazole-4,5-dicarboxamide], the pIC50 in test [1] was 6.60; in test [2] it was 4.60; at TNKS2, 6.64.
Take `CC(C)(O)CNC(=O)c1nc[nH]c1C(=O)N[C@H]1CC[C@H](C(=O)Nc2cc(C(F)(F)F)ccc2Cl)CC1` [Example 145, N^5-(trans-4-{[2-chloro-5-(trifluoromethyl)phenyl]carbamoyl}cyclohexyl)-N^4-(2-hydroxy-2-methylpropyl)-1H-imidazole-4,5-dicarboxamide]: the figures for the negative-log IC50 (pIC50) (in test [1]; in test [2]; against TNKS2) were 6.82, 4.82 and 6.55, respectively.
For `O=C(NCC1CCCO1)c1nc[nH]c1C(=O)N[C@H]1CC[C@H](C(=O)Nc2cc(C(F)(F)F)ccc2Cl)CC1` (stereo partly drawn) [Example 146, N^5-(trans-4-{[2-chloro-5-(trifluoromethyl)phenyl]carbamoyl}cyclohexyl)-N^4-(tetrahydrofuran-2-ylmethyl)-1H-imidazole-4,5-dicarboxamide], the pIC50 is 6.14 in test [1], 4.54 in test [2] and 7.00 against TNKS2.
`CNC(=O)c1nc[nH]c1C(=O)N[C@H]1CC[C@H](C(=O)Nc2ncncc2Cl)CC1` [Example 147, N^5-{trans-4-[(5-chloropyrimidin-4-yl)carbamoyl]cyclohexyl}-N^4-methyl-1H-imidazole-4,5-dicarboxamide]: the pIC50 is 7.27 in test [1], not above 4.30 in test [2] and 7.11 on TNKS2.
On to `O=C(N[C@H]1CC[C@]2(CCN(c3ccc(F)cc3Cl)C2=O)CC1)c1cnn2cccnc12` [Example 148, N-[(cis)-2-(2-chloro-4-fluorophenyl)-1-oxo-2-azaspiro[4.5]dec-8-yl]pyrazolo[1,5-a]pyrimidine-3-carboxamide], for which the figures for the pIC50 (in test [1]; in test [2]; at TNKS2) were 6.85, not above 4.30 and 5.89, respectively.
`O=C(N[C@H]1CC[C@H](C(=O)Nc2cnc(C(F)(F)F)cc2Cl)CC1)c1cnn2cccnc12` [Example 149, N-(trans-4-{[4-chloro-6-(trifluoromethyl)pyridin-3-yl]carbamoyl}cyclohexyl)pyrazolo[1,5-a]pyrimidine-3-carboxamide]: the figures for the negative-log IC50 (pIC50) (in test [1]; in test [2]; at TNKS2) were 6.72, not above 4.30 and 6.77, respectively.
Taken in the same sequence, the figures for `Cc1cc(NC(=O)[C@H]2CC[C@H](NC(=O)c3cnn4cccnc34)CC2)c(Cl)cc1F` [Example 150, N-{trans-4-[(2-chloro-4-fluoro-5-methylphenyl)carbamoyl]cyclohexyl}pyrazolo[1,5-a]pyrimidine-3-carboxamide] were 7.10, not above 4.30 and 7.46.
Turning to `Cc1cc(F)cc(Cl)c1NC(=O)[C@H]1CC[C@H](NC(=O)c2cnn3cccnc23)CC1` [Example 151, N-{trans-4-[(2-chloro-4-fluoro-6-methylphenyl)carbamoyl]cyclohexyl}pyrazolo[1,5-a]pyrimidine-3-carboxamide], the pIC50 in test [1] was 6.96; in test [2] it was not above 4.30; against TNKS2 it was 6.82.
Taken in the same sequence, the figures for `CCN(c1ccc(F)cc1Cl)C(=O)[C@H]1CC[C@H](NC(=O)c2cnn3cccnc23)CC1` [Example 154, N-{trans-4-[(2-chloro-4-fluorophenyl)(ethyl)carbamoyl]cyclohexyl}pyrazolo[1,5-a]pyrimidine-3-carboxamide] were 6.89, not above 4.30 and 7.24.
`CN(c1ccc(F)cc1Cl)C(=O)[C@H]1CC[C@H](NC(=O)c2cnn3cccnc23)CC1` [Example 155, N-{trans-4-[(2-chloro-4-fluorophenyl)(methyl)carbamoyl]cyclohexyl}pyrazolo[1,5-a]pyrimidine-3-carboxamide]: the pIC50 in test [1] was 6.89; in test [2], not above 4.30; against TNKS2, 7.04.
In the same order, the values of `CN(c1ccccc1)C(=O)[C@H]1CC[C@H](NC(=O)c2cnn3cccnc23)CC1` [Example 156, N-{trans-4-[methyl(phenyl)carbamoyl]cyclohexyl}pyrazolo[1,5-a]pyrimidine-3-carboxamide] are 6.72, not above 4.30 and 6.64.
As to `CNC(=O)c1nc[nH]c1C(=O)N[C@H]1CC[C@H](C(=O)N(CCO)c2ccc(F)cc2Cl)CC1` [Example 157, N^5-{trans-4-[(2-chloro-4-fluorophenyl)(2-hydroxyethyl)carbamoyl]cyclohexyl}-N^4-methyl-1H-imidazole-4,5-dicarboxamide], the pIC50 in test [1] is 5.08; in test [2] it was not above 4.30; against TNKS2, 6.55.

The values are drawn from US20180148418A1, “AMIDO-SUBSTITUTED CYCLOHEXANE DERIVATIVES” (Bayer Pharma Aktiengesellschaft, priority 2015, published 2018).
